This note sets out measurements from patent publication US20210087159A1, “TETRAHYDROCANNABINOLIC- CA[…] DERIVATIVES AND USES THEREOF” (AL&AM […]., priority 2018, published 2021).

Assay [1] concerns TNF-α. Nature of the assay: LPS induced cytokine release assay, TNF-α by ELISA in PBMCs. Format: cell-based. The note with it: human PBMCs; for TNF-α: 72 h, ELISA (LPS control 18.16); for change of TNF-α expression in LPS-treated cells: tested concentrations of 1 M and 10 M (so in the source). The text has this:
This study was aimed to test the effect of 12 compounds (THCA, Ia1, Ia5, Ia6, Ia9, Ia11, Ia15, Ia17, Ia24, Ia25, Ia27, and Ia28) on human peripheral blood mononuclear cells (PBMCs) challenged by lipopolysaccharide (LPS) through monitoring multiple inflammatory endpoints.
Blood samples were collected from healthy volunteers according to protocols that have been reviewed and approved by the Chempartner Institutional Ethic Committee (IEC) upon signing an Informed Consent Form (ICF).
Fresh PBMCs were isolated and seeded into 96-well plate, and diluted solutions of the tested compounds and 0.1 μg/mL LPS were then added (in triplicates). To serve as control, 3 wells with PBMCs only, 3 wells with 0.1 μg/mL LPS, and 2 wells with 1 μg/mL dexamethasone (Dex) and 0.1 μg/mL LPS were included. After 72 hours incubation, supernatant was collected for tumor necrosis factor-α (TNF-α) measurement by enzyme-linked immunosorbent assay (ELISA), and cell pellets were harvested for cell proliferation measurement by CellTiter-Glo® Luminescent Cell Viability Assay (CTG).
The human blood sample from an individual donor was diluted by the same volume of sterile phosphate buffered solution (PBS) and mixed sufficiently by gentle shake. 15 mL Lymphoprep™ medium was transferred into a new 50 mL centrifuge tube, and the diluted blood sample (30 mL) was then carefully added onto the surface of the medium, which consequently contained Ficoll 400 and blood in a volume ratio of 1:2. Four interfaces were observed after centrifugation, which are, from top to bottom, layers of plasma, mononuclear cells, Ficoll medium, and red blood cells (RBCs). Plasma was absorbed, and mononuclear cells were then transferred into another new sterile centrifuge tube. Then, sterile PBS buffer was added into the collected PBMCs for washing, at a volume ratio of 3:1. PBMCs were washed with 5-10 mL PBS twice before cell counting with cytometer. Cells were centrifuged at 350×g, for 10 min, at 20° C. with the acceleration (5) and deceleration (5) settings during the centrifugation. The cells were resuspended with RPMI 1640 complete medium (containing 10% FBS) for assay, and the density was adjusted with RPMI 1640 complete medium to the final concentration of 2E6 cells/mL. Cells suspension of the PBMCs (100 μL/well) were seeded into 96-well plate (#3903).
Diluted solutions of the tested compounds were prepared with RPMI 1640 complete medium according to the following layout. Compounds were prepared at 5-fold of concentration (50 μM), and then were diluted to the working concentration of 10 μM with RPMI 1640 complete medium and made 10-fold serially dilution (2 points). The diluted compounds (50 μL/well) were added to the indicated wells, and the plate was incubated at 37° C., 5% CO2, for 72 h.
LPS (0.1 μg/mL, 100 μL) was added into each well. Dex (1 μg/mL) was included as a positive control. Plate was incubated at 37° C., 5% CO2 for 72 h. Supernatant was collected to measure TNF-α by ELISA. Cell proliferation was detected by CTG.

Assay [2] concerns PANC-1 (pancreatic carcinoma). Kind of assay: XTT cytotoxicity assay (Pharma Seed). The note with it: Homo sapiens, 48 hours, 20, 10, 5, 1 μM, assay medium 1% FBS. Format: cell-based. The method, then: In this study, the cytotoxicity of several compounds of the present invention on lung and pancreatic cancer cell was evaluated.
PANC-1 (pancreatic carcinoma) culture medium: DMEM (High Glucose), supplemented with 10% FBS (heat inactivated), 2 mM L-glutamine, and 1% of Pen/Strep/Amp solution. PANC-1 assay medium: DMEM (High Glucose), supplemented with 1% FBS (heat inactivated), 2 mM L-glutamine, and 1% of Pen/Strep/Amp solution.
Each of the tested compounds was dissolved in DMSO to reach a stock concentration of 20 mM (and stored at −15° C.-−25° C. until use. Compound Ia28 (MW 484 g/mol, 3.05 mg total) was dissolved in 0.315 mL; compound Ia9 (MW 484 g/mol, 2.33 mg total) was dissolved in 0.241 mL; and compound Ia6 (MW 428.3 g/mol, 2.25 mg total) was dissolved in 0.262 mL.
On the day of incubation with the cells, each compound was diluted in DMSO to reach 2 mM, 1 mM, 0.5 mM, 0.1 mM stock concentrations (1:10, 1:20, 1:40 and 1:200), and each of these stocks was further diluted in assay medium 1:100 for final concentration of 20 μM, 10 μM, 5 μM, and 1 μM.
Part 1—cell number calibration. PANC-1 and A549 cells were each plated in a 96 well plate, in their culture medium, at various cell concentrations per well, in triplicates, and were allowed to attach for 24 hours. Thereafter, culture medium was discarded, assay medium was added, and the cells were incubated for additional 72 hours. Finally, assay medium was discarded, and fresh culture medium was added to the cells along with 50 μl XTT reagent. The OD was measured every two hours for 6 hours (three times).
The highest cells number/well were chosen for part 2 as follows: PANC-1 at 7,500 cells per well, A549 at 5000 cells per well.
Part 2—cells incubation with tested compounds. PANC-1 and A549 cells were plated in a 96 well plate, in their culture medium, at the optimal cell concentration according to the results from the previous section and were allowed to attach for 24 hours. Thereafter, the culture medium was discarded, and fresh assay medium was added to the cells, supplemented with elevating compound concentrations. Triton 0.1% was used as positive control for cell death. The cells were incubated for another 48 hours (TBD upon microscopic observation). Finally, fresh culture medium was added to the cells along with 50 μl XTT reagent. The OD was measured at the optimal time point according to the results in the previous section.
A general note: Tetrazolium assays rely on reduction of a dye to a coloured formazan, in cell work by metabolically active cells.

For `CCCCCc1cc2c(c(O)c1C(=O)O)[C@@H]1C=C(C)CC[C@H]1C(C)(C)O2` [THCA, tetrahydrocannabinolic acid, reference compound], the TNF-α came out at 21.04 pg/mL in assay [1] (compound 1 μM + 0.1 μg/mL LPS) and 27.57 pg/mL in assay [1] (compound 10 μM + 0.1 μg/mL LPS). In addition, the “change of TNF-α expression in LPS-treated cells” value (“change of TNF-α expression” for short) in assay [1] was “increased TNF-α expression”.

With `C=C(C)[C@@H]1CCC(C)=C[C@H]1c1c(O)cc(CCCCC)c(C(=O)NCCCN2CCOCC2)c1O` [Ia28, (1′R,2′R)-2,6-dihydroxy-5′-methyl-N-(3-morpholinopropyl)-4-pentyl-2′-(prop-1-en-2-yl)-1′,2′,3′,4′-tetrahydro-[1,1′-biphenyl]-3-carboxamide], in assay [2], half-maximal inhibition (IC50) required 19 µM. The TNF-α in assay [1] (compound 1 μM + 0.1 μg/mL LPS) was 41.38 pg/mL; in assay [1] (compound 10 μM + 0.1 μg/mL LPS) it was 22.35 pg/mL. For the same compound, in assay [1], the “change of TNF-α expression” value was “decreased TNF-α expression”.

As for `CCCCCc1cc2c(c(O)c1C(=O)NCCN(C)C)[C@@H]1C=C(C)CC[C@H]1C(C)(C)O2` [Ia6, (6aR,0aR)—N-(2-(dimethylamino)ethyl)-1-hydroxy-6,6,9-trimethyl-3-pentyl-6a,7,8,10a-tetrahydro-6H-benzo[c]chromene-2-carboxamide], the IC50 in assay [2] came out at 9.4 µM. For the same compound, the TNF-α in assay [1] (compound 1 μM + 0.1 μg/mL LPS) is 17.09 pg/mL; in assay [1] (compound 10 μM + 0.1 μg/mL LPS) it was 49.73 pg/mL. For the same compound, in assay [1], the “change of TNF-α expression” value was “increased TNF-α expression”.

`CCCCCc1cc2c(c(O)c1C(=O)NCCCN1CCOCC1)[C@@H]1C=C(C)CC[C@H]1C(C)(C)O2` [Ia9, (6aR,0aR)-1-hydroxy-6,6,9-trimethyl-N-(3-morpholinopropyl)-3-pentyl-6a,7,8,10a-tetrahydro-6H-benzo[c]chromene-2-carboxamide] registered an IC50 in assay [2] of 11.4 µM. For the same compound, the values for the TNF-α in assay [1] (compound 1 μM + 0.1 μg/mL LPS) and in assay [1] (compound 10 μM + 0.1 μg/mL LPS) were 20.26 pg/mL and 45.82 pg/mL, respectively. Moreover, the “change of TNF-α expression” value in assay [1] is recorded as “increased TNF-α expression”.

By IC50 is commonly meant the concentration that inhibits the measured activity by half. A low value points to higher potency.
